Molecules are shown by their SMILES.

For the first experiment, the target named is T1, MMP-2 (Homo sapiens, UniProt P08253).
T1 construct: made in house; host or cells: MMP-2-transfected p2AHT2 cells
T1 sequence (P08253 110-660): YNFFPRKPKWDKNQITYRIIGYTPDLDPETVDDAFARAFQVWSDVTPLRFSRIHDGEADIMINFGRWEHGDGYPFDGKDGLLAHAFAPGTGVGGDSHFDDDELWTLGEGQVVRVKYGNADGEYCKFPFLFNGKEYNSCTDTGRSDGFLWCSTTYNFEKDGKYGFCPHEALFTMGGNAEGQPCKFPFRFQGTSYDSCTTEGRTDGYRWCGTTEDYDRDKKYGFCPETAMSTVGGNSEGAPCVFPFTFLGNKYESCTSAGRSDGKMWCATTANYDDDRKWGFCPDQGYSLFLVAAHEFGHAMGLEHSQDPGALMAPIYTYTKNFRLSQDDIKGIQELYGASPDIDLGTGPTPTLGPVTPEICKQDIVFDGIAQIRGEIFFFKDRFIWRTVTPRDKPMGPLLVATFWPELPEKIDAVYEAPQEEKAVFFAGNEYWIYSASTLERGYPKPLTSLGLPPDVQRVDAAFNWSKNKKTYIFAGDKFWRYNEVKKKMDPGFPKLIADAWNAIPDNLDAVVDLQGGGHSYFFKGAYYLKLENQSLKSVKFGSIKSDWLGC
The experiment in a line: In vitro MMP inhibition, Ki determination (fluorogenic substrate II). Conditions: value not in parenthesis; read-out: MMP-2 Ki. The class given is biochemical.
With `CCCCOc1ccc(N2CCN(S(=O)(=O)C3(C(=O)NO)CCOCC3)CC2)nc1` [Example 100], the inhibition constant (Ki) (usually the equilibrium dissociation constant of an inhibitor or competing ligand from its target) was determined as 0.13 nM. Still for that read-out and setting: to `O=C(NO)C1(S(=O)(=O)N2CCN(c3ccc(OC4CCC4)c(F)c3)CC2)CCOCC1` [Example 73] belongs 2.2 nM. As for `O=C(NO)C1(S(=O)(=O)N2CCN(c3ccc(OCCCCF)cc3)CC2)CCOCC1` [Example 89], the Ki worked out at 0.49 nM. On the same count and under the same terms, to `CCCCOc1ccc(N2CCN(S(=O)(=O)C3(C(=O)NO)Cc4ccccc4C3)CC2)nc1` [Example 85] belongs 0.64 nM; to `CCCCOc1ccc(N2CCN(S(=O)(=O)C3(C(=O)NO)CCOCC3)CC2)c(F)c1` [Example 90], 1.68 nM; to `C#CCOC(=O)N1CCC(C(=O)NO)(S(=O)(=O)N2CCN(c3ccc(OCCCC)cc3)CC2)CC1` [Example 98], 0.5 nM.

As for `O=C(NO)C1(S(=O)(=O)N2CCN(c3ccc(OCCCC(F)(F)F)cn3)CC2)CCOCC1` [Example 83], the Ki is 0.251 nM. Still for that read-out and setting: to `CCCCOc1ccc(N2CCN(S(=O)(=O)C3(C(=O)NO)CCN(c4nc5ccccc5s4)CC3)CC2)cc1` [Example 93] belongs 6.92 nM; to `CCN1CCC(C(=O)NO)(S(=O)(=O)N2CCN(c3ccc(OCCCC(F)(F)F)cc3)CC2)CC1` [Example 78], 2.56 nM.

With `CCCCc1ccc(N2CCN(S(=O)(=O)C3(C(=O)NO)CCN(c4cccnc4)CC3)CC2)nc1` [Example 96], the Ki worked out at 0.2 nM. Still for that read-out and setting: to `O=C(NO)C1(S(=O)(=O)N2CCN(c3ccc(-c4ccccc4)cc3)CC2)CCOCC1` [Example 76] belongs 0.19 nM; to `O=C(NO)C1(S(=O)(=O)N2CCN(c3ccc(C(F)(F)F)cn3)CC2)CCOCC1` [Example 94], 0.66 nM; to `COCCN1CCC(C(=O)NO)(S(=O)(=O)N2CCN(c3ccc(OCCCCF)cc3)CC2)CC1` [Example 88], 0.54 nM. Still for that read-out and setting: to `O=C(NO)C1(S(=O)(=O)N2CCN(c3ccc(OCCCC(F)(F)F)cc3F)CC2)CCOCC1` [Example 81] belongs 0.407 nM; to `CCCCc1ccc(N2CCN(S(=O)(=O)C3(C(=O)NO)CCOCC3)CC2)c(F)c1` [Example 91], 1.22 nM; to `O=C(NO)C1(S(=O)(=O)N2CCN(c3ccc(OCc4ccccc4)cn3)CC2)CCOCC1` [Example 74], 0.5 nM.

For the molecule `O=C(NO)C1(S(=O)(=O)N2CCN(c3ccc(COCC(F)(F)F)cc3)CC2)CCOCC1` [Example 72], the Ki worked out at 2.44 nM. The same measure, in the same setting: to `CCCCc1ccc(N2CCN(S(=O)(=O)C3(C(=O)NO)CCN(c4ncccn4)CC3)CC2)nc1` [Example 99] belongs 0.17 nM. With `CCCCc1ccc(C2CCN(S(=O)(=O)C3(C(=O)NO)CCN(CCOC)CC3)CC2)s1` [Example 55], the Ki was found to be 2.2 nM.

Staying with this experiment, now noted: value outside parentheses; read-out: MMP-2 Ki.
Consider `CCCCOc1ccc(N2CCN(S(=O)(=O)C3(C(=O)NO)CCN(C(=O)COC)CC3)CC2)cc1` [Example 268], for which the Ki is 0.564 nM.

`CCCCOc1ccc(N2CCN(S(=O)(=O)C3(C(=O)NO)CCN(C(=O)C(C)(C)C)CC3)CC2)cc1` [Example 267]: the inhibition constant Ki amounted to 0.836 nM. The same measure, in the same setting: to `CCCCOc1ccc(N2CCN(S(=O)(=O)C3(C(=O)NO)CCN(C=O)CC3)CC2)cc1` [Example 269] belongs 0.436 nM; to `CCCCOc1ccc(N2CCN(S(=O)(=O)C3(C(=O)NO)CCN(C)CC3)CC2)cc1` [Example 280], 2.76 nM. For `CCCCOc1ccc(N2CCN(S(=O)(=O)C3(C(=O)NO)CCN(C(=O)C4CC4)CC3)CC2)cc1` [Example 260], the Ki came to 0.467 nM. On the same count and under the same terms, to `CCCCCc1ccc(N2CCN(S(=O)(=O)C3(C(=O)NO)CCN(C4CC4)CC3)CC2)cc1` [Example 272] belongs 0.662 nM. The same measure, in the same setting: to `COCCOc1ccc(N2CCN(S(=O)(=O)C3(C(=O)NO)CCN(C4CC4)CC3)CC2)cc1F` [Example 297] belongs 1.36 nM; to `CCCCOc1ccc(N2CCN(S(=O)(=O)C3(C(=O)NO)CCN(C(=O)c4ccccn4)CC3)CC2)cc1` [Example 277], 0.42 nM; to `CCCCOc1ccc(N2CCN(S(=O)(=O)C3(C(=O)NO)CCN(c4ccc(O)nn4)CC3)CC2)cc1` [Example 283], 0.37 nM. On the same count and under the same terms, to `COCCN1CCC(C(=O)NO)(S(=O)(=O)N2CCC(c3ccc(CCCC(F)(F)F)cc3)CC2)CC1` [Example 310] belongs 0.919 nM. For `CCCCOc1ccc(N2CCN(S(=O)(=O)C3(C(=O)NO)CCN(C(=O)c4ccncc4)CC3)CC2)cc1` [Example 259], the Ki came out at 0.468 nM.

`CCCCOc1ccc(N2CCN(S(=O)(=O)C3(C(=O)NO)CCNCC3)CC2)cc1` [Example 276]: the Ki came out at 5.7 nM. The same measure, in the same setting: to `CCc1ccc(N2CCN(S(=O)(=O)C3(C(=O)NO)CCCC3)CC2)nc1` [Example 261] belongs 0.276 nM; to `CCCCc1ccc(C2CCN(S(=O)(=O)C3(C(=O)NO)CCOCC3)CC2)nc1` [Example 307], 0.505 nM; to `CCCCOc1ccc(N2CCN(S(=O)(=O)C3(C(=O)NO)CCN(C(=O)CN)CC3)CC2)cc1` [Example 292], 1.74 nM. Still for that read-out and setting: to `CCCCOc1ccc(N2CCN(S(=O)(=O)C3(C(=O)NO)CCN(C(=O)c4cccnc4)CC3)CC2)cc1` [Example 266] belongs 0.422 nM. `CCCCOc1ccc(N2CCN(S(=O)(=O)C3(C(=O)NO)CCN(Cc4ccco4)CC3)CC2)cc1` [Example 252]: the inhibitory constant (Ki) is 1.38 nM. Regarding `CCCCCc1ccc(C2CCN(S(=O)(=O)C3(C(=O)NO)CCOCC3)CC2)nc1` [Example 305], the inhibition constant Ki worked out at 0.407 nM. For `CCCCOc1ccc(N2CCN(S(=O)(=O)C3(C(=O)NO)CCN(C(=O)CC)CC3)CC2)cc1` [Example 274], the Ki was 0.826 nM. `C#CCN1CCC(C(=O)NO)(S(=O)(=O)N2CCN(c3ccc(OCCCC)cc3)CC2)CC1` [Example 303]: the Ki was 1.68 nM. On the same count and under the same terms, to `O=C(NO)C1(S(=O)(=O)N2CCN(c3ccc(SC(F)(F)F)cc3)CC2)CCS(=O)(=O)CC1` [Example 258] belongs 4.06 nM; to `CCCCOc1ccc(N2CCN(S(=O)(=O)C3(C(=O)NO)CCN(C(=O)CC(F)(F)F)CC3)CC2)cc1` [Example 265], 0.878 nM. The same measure, in the same setting: to `CCCCOc1ccc(N2CCN(S(=O)(=O)C3(C(=O)NO)CCN(C(=O)N(C)C)CC3)CC2)cc1` [Example 254] belongs 0.309 nM. The same measure, in the same setting: to `CC(C)CCOc1ccc(N2CCN(S(=O)(=O)C3(C(=O)NO)CCOCC3)CC2)cc1` [Example 279] belongs 1.11 nM; to `O=C(NO)C1(S(=O)(=O)N2CCC(c3ccc(Br)cn3)CC2)CCOCC1` [Example 306], 0.444 nM; to `CCCCOc1ccc(N2CCN(S(=O)(=O)C3(C(=O)NO)CCN(C(=O)C(C)C)CC3)CC2)cc1` [Example 273], 0.622 nM. Turning to `CCCCOc1ccc(N2CCN(S(=O)(=O)C3(C(=O)NO)CCN(C4CC4)CC3)CC2)cc1` [Example 301], the Ki was found to be 0.88 nM.

With `CCCCOc1ccc(N2CCN(S(=O)(=O)C3(C(=O)NO)CCN(C(=O)c4ccccc4)CC3)CC2)cc1` [Example 255], the inhibitory constant (Ki) was 0.858 nM. The same measure, in the same setting: to `COCCN1CCC(C(=O)NO)(S(=O)(=O)N2CCC(c3ccc(CCC(F)(F)C(F)(F)F)cc3)CC2)CC1` [Example 312] belongs 0.52 nM; to `CCCCOc1ccc(N2CCN(S(=O)(=O)C3(C(=O)NO)CCN(CC4CC4)CC3)CC2)cc1` [Example 298], 3.27 nM. In the case of `CCCCOc1ccc(N2CCN(S(=O)(=O)C3(C(=O)NO)CCN(c4ccc(C(F)(F)F)cn4)CC3)CC2)cc1` [Example 257], the inhibition constant (Ki) turned out to be 9.64 nM. For `Cc1cc(N2CCN(S(=O)(=O)C3(C(=O)NO)CCOCC3)CC2)ccc1OC(C)C` [Example 299], the Ki turned out to be 22.5 nM. Still for that read-out and setting: to `CCCCOc1ccc(N2CCN(S(=O)(=O)C3(C(=O)NO)CCN(C(N)=O)CC3)CC2)cc1` [Example 253] belongs 0.761 nM. Still for that read-out and setting: to `CCCCOc1ccc(N2CCN(S(=O)(=O)C3(C(=O)NO)CCN(c4ccc(Cl)cc4)CC3)CC2)cc1` [Example 251] belongs 22.5 nM.

For the molecule `CCCCOc1ccc(N2CCN(S(=O)(=O)C3(C(=O)NO)CCN(c4ccc(C)nn4)CC3)CC2)cc1` [Example 275], the Ki is 0.381 nM. For the molecule `CCCCc1ccc(N2CCN(S(=O)(=O)C3(C(=O)NO)CCN(CCOC)CC3)CC2)nc1` [Example 270], the Ki amounted to 0.176 nM. On the same count and under the same terms, to `CCCCOc1ccc(N2CCN(S(=O)(=O)C3(C(=O)NO)CCN(Cc4cccnc4)CC3)CC2)cc1F` [Example 293] belongs 0.486 nM; to `CCCCOc1ccc(N2CCN(S(=O)(=O)C3(C(=O)NO)CCN(CCOC)CC3)CC2)c(F)c1` [Example 284], 0.81 nM; to `CCCCOc1ccc(N2CCN(S(=O)(=O)C3(C(=O)NO)CCN(c4ccc(Cl)nn4)CC3)CC2)cc1` [Example 281], 0.769 nM. Turning to `COCCN1CCC(C(=O)NO)(S(=O)(=O)N2CCC(c3ccc(CCC(F)(F)F)cc3)CC2)CC1` [Example 309], the Ki was found to be 0.328 nM. Still for that read-out and setting: to `CCCCOc1ccc(N2CCN(S(=O)(=O)C3(C(=O)NO)CCN(c4ccc(C)cc4)CC3)CC2)cc1F` [Example 296] belongs 6.73 nM; to `CS(=O)(=O)c1ccc(N2CCN(S(=O)(=O)C3(C(=O)NO)CCOCC3)CC2)cc1` [Example 300], 67.1 nM; to `CCc1ccc(N2CCN(S(=O)(=O)C3(C(=O)NO)CCCCC3)CC2)nc1` [Example 263], 0.188 nM. For the molecule `CCCCOc1ccc(N2CCN(S(=O)(=O)C3(C(=O)NO)CCN(c4ccc(C)cc4)CC3)CC2)cc1` [Example 295], the Ki stood at 8.76 nM.
